In US10563263B2, “Genetic polymorphisms associated with statin response and cardiovascular diseases, methods of detection and uses thereof” (CELERA CORPORATION, priority 2010, dated 2020):

Tested on: stroke or transient ischemic attack (TIA)
Experiment: CARE: stroke (including TIA) statin response by SNP genotype, hazard ratio pravastatin vs placebo (Tables 20-21)
Assay type: in vivo, human
Details: for EVENTS_RESP (total number of stroke or TIA events): CARE pravastatin arm; for HR_RESP (hazard ratio pravastatin vs placebo, stroke) / HR_RESP (hazard ratio, pravastatin-treated vs placebo-treated): CARE; for HR_RESP (hazard ratio pravastatin vs placebo, stroke): ref = placebo; for HR_RESP (hazard ratio, pravastatin-treated vs placebo-treated): stroke or TIA, pravastatin 40 mg/day
Source text: Tables 20-21 provides SNPs associated with stroke risk and/or stroke statin response (reduction in stroke risk by statin treatment) in the CARE sample set. Consistent with the CARE trial, the stroke endpoint in the analysis for which the results are provided in Tables 20-21 included stroke as well as transient ischemic attack (TIA).
In Tables 20-22, certain columns are labeled “RESP”, “PLACEBO, OR “ALL”. “RESP” is for statin response as measured by comparing risk (risk for stroke, including TIA, in Tables 20-21, and risk for CHD, specifically recurrent MI, in Table 22) in the pravastatin-treated group with risk in the placebo-treated group, “PLACEBO” is the placebo-treated group, and “ALL” is the combination of the placebo-treated group and the pravastatin-treated group. “RESP” is the analysis to assess statin response in the indicated genotype group.
“EVENTS” indicates the total number of events (stroke or TIA for Tables 20-21, and recurrent MI for Table 22) in individuals with the indicated genotype.
“HR” indicates the hazard ratio.
CARE was a secondary prevention trial and WOSCOPS was a primary prevention trial.
Table 20 provides SNPs associated with stroke risk and/or stroke statin response in the CARE sample set. For example, SNPs rs10757278 and rs1333049 at chromosomal location 9p21 were associated with a reduction of stroke events by statin treatment in CARE, particularly for heterozygotes (see Table 20). Furthermore, SNPs rs12425791 and rs11833579 at chromosomal location 12p13 near the NINJ2 gene were associated with stroke risk in the placebo arm of CARE (see Table 20). […] Consistent with the CARE trial, the stroke endpoint in the analysis for which the results are provided in Tables 20-21 included stroke as well as transient ischemic attack (TIA).
Fine-mapping at the chromosome 12p13 locus was carried out by selecting 77 tagging SNPs from a 400 kb region of the chromosome 12p13 locus which covered the NINJ2 gene and other genes, genotyping these 77 SNPs, and further imputing the genotypes of approximately 250 additional SNPs in this region, for individuals in the CARE study. Analyzing these fine-mapping SNPs for association with stroke risk in the placebo arm of CARE and for stroke statin response in CARE identified SNP rs873134 in the B4GALNT3 gene in the chromosome 12p13 region near NINJ2 (see Table 21).

Q: Which “EVENTS_RESP (total number of stroke or TIA events)” value (from here on “EVENTS_RESP”) (rs873134 genotype CC, MODE GEN, of 354 individuals) does the source give for `CC[C@H](C)C(=O)O[C@H]1C[C@H](O)C=C2C=C[C@H](C)[C@H](CC[C@@H](O)C[C@@H](O)CC(=O)O)[C@H]21` [Pravastatin, pravastatin] here?
A: Its value is 27.

Q: And the “EVENTS_RESP” value (rs873134 genotype CT + CC, MODE DOM, of 1034 individuals)?
A: The value was 51.

Q: And the “EVENTS_RESP” value (rs873134 genotype CT + TT, MODE REC, of 1046 individuals)?
A: Its value is 40.

Q: What about the “EVENTS_RESP” value (rs873134 genotype CT, MODE GEN, of 680 individuals) of the same molecule?
A: The value was 24.

Q: And the “EVENTS_RESP” value (rs873134 genotype TT, MODE GEN, of 366 individuals)?
A: Its value is 16.

Q: What about the “HR_RESP (hazard ratio pravastatin vs placebo, stroke)” value (rs1333049 (hCV1754666, 9p21), MODE DOM, genotype GC + GG) of the same molecule?
A: Its value is 0.63.

Q: And the “HR_RESP (hazard ratio pravastatin vs placebo, stroke)” value (rs1333049 (hCV1754666, 9p21), MODE GEN, genotype CC)?
A: The value was 1.11.

Q: And the “HR_RESP (hazard ratio pravastatin vs placebo, stroke)” value (rs1333049 (hCV1754666, 9p21), MODE GEN, genotype GC)?
A: Its value is 0.54.

Q: What about the “HR_RESP (hazard ratio pravastatin vs placebo, stroke)” value (rs1333049 (hCV1754666, 9p21), MODE GEN, genotype GG) of the same molecule?
A: Its value is 0.96.

Q: What about the “HR_RESP (hazard ratio pravastatin vs placebo, stroke)” value (rs1333049 (hCV1754666, 9p21), MODE REC, genotype GC + CC) of the same molecule?
A: The value was 0.7.

Q: What about the “HR_RESP (hazard ratio pravastatin vs placebo, stroke)” value (rs10757278 (hCV11841860, 9p21), MODE DOM, genotype GA + GG) of the same molecule?
A: Its value is 0.7.

Q: What about the “HR_RESP (hazard ratio pravastatin vs placebo, stroke)” value (rs10757278 (hCV11841860, 9p21), MODE GEN, genotype AA) of the same molecule?
A: Its value is 0.9.

Q: And the “HR_RESP (hazard ratio pravastatin vs placebo, stroke)” value (rs10757278 (hCV11841860, 9p21), MODE GEN, genotype GA)?
A: Its value is 0.54.

Q: What about the “HR_RESP (hazard ratio pravastatin vs placebo, stroke)” value (rs10757278 (hCV11841860, 9p21), MODE GEN, genotype GG) of the same molecule?
A: The value was 1.08.

Q: And the “HR_RESP (hazard ratio pravastatin vs placebo, stroke)” value (rs10757278 (hCV11841860, 9p21), MODE REC, genotype GA + AA)?
A: The value was 0.62.

Q: What about the “HR_RESP (hazard ratio pravastatin vs placebo, stroke)” value (rs11833579 (hCV1665834, 12p13), MODE DOM, genotype AG + AA) of the same molecule?
A: Its value is 0.64.

Q: What about the “HR_RESP (hazard ratio pravastatin vs placebo, stroke)” value (rs11833579 (hCV1665834, 12p13), MODE GEN, genotype AA) of the same molecule?
A: Its value is 0.26.

Q: And the “HR_RESP (hazard ratio pravastatin vs placebo, stroke)” value (rs11833579 (hCV1665834, 12p13), MODE GEN, genotype AG)?
A: Its value is 0.75.

Q: What about the “HR_RESP (hazard ratio pravastatin vs placebo, stroke)” value (rs11833579 (hCV1665834, 12p13), MODE GEN, genotype GG) of the same molecule?
A: The value was 0.86.

Q: What about the “HR_RESP (hazard ratio pravastatin vs placebo, stroke)” value (rs11833579 (hCV1665834, 12p13), MODE REC, genotype AG + GG) of the same molecule?
A: The value was 0.81.

Q: What about the “HR_RESP (hazard ratio pravastatin vs placebo, stroke)” value (rs12425791 (hCV12094896, 12p13), MODE DOM, genotype AG + AA) of the same molecule?
A: Its value is 0.52.

Q: And the “HR_RESP (hazard ratio pravastatin vs placebo, stroke)” value (rs12425791 (hCV12094896, 12p13), MODE GEN, genotype AA)?
A: The value was 0.28.

Q: And the “HR_RESP (hazard ratio pravastatin vs placebo, stroke)” value (rs12425791 (hCV12094896, 12p13), MODE GEN, genotype AG)?
A: The value was 0.56.

Q: And the “HR_RESP (hazard ratio pravastatin vs placebo, stroke)” value (rs12425791 (hCV12094896, 12p13), MODE GEN, genotype GG)?
A: Its value is 0.95.

Q: And the “HR_RESP (hazard ratio pravastatin vs placebo, stroke)” value (rs12425791 (hCV12094896, 12p13), MODE REC, genotype AG + GG)?
A: The value was 0.78.

Q: And the “HR_RESP (hazard ratio, pravastatin-treated vs placebo-treated)” value (rs873134 (hCV2652047) genotype CC, MODE GEN)?
A: The value was 2.01.

Q: And the “HR_RESP (hazard ratio, pravastatin-treated vs placebo-treated)” value (rs873134 (hCV2652047) genotype CT + CC, MODE DOM)?
A: The value was 0.83.

Q: What about the “HR_RESP (hazard ratio, pravastatin-treated vs placebo-treated)” value (rs873134 (hCV2652047) genotype CT + TT, MODE REC) of the same molecule?
A: Its value is 0.52.

Q: What about the “HR_RESP (hazard ratio, pravastatin-treated vs placebo-treated)” value (rs873134 (hCV2652047) genotype CT, MODE GEN) of the same molecule?
A: The value was 0.5.

Q: And the “HR_RESP (hazard ratio, pravastatin-treated vs placebo-treated)” value (rs873134 (hCV2652047) genotype TT, MODE GEN)?
A: Its value is 0.54.
